According to patent US9150592B2, “Heterocyclic nuclear hormone receptor modulators” (AbbVie Inc., priority 2012, dated 2015):
pIC50: −log10 of the molar value.

Key:
[1] = biological target: T1, Glucocorticoid Receptor (GR) (Homo sapiens, UniProt P04150); assay: GR Fluorescence Polarization Assay (PolarScreen Glucocorticoid Receptor Competitor Assay, Red); conditions: IC50 class ranges, read-out: GR binding
T1 construct: purchased Invitrogen P2893
T1 sequence (P04150 1-777): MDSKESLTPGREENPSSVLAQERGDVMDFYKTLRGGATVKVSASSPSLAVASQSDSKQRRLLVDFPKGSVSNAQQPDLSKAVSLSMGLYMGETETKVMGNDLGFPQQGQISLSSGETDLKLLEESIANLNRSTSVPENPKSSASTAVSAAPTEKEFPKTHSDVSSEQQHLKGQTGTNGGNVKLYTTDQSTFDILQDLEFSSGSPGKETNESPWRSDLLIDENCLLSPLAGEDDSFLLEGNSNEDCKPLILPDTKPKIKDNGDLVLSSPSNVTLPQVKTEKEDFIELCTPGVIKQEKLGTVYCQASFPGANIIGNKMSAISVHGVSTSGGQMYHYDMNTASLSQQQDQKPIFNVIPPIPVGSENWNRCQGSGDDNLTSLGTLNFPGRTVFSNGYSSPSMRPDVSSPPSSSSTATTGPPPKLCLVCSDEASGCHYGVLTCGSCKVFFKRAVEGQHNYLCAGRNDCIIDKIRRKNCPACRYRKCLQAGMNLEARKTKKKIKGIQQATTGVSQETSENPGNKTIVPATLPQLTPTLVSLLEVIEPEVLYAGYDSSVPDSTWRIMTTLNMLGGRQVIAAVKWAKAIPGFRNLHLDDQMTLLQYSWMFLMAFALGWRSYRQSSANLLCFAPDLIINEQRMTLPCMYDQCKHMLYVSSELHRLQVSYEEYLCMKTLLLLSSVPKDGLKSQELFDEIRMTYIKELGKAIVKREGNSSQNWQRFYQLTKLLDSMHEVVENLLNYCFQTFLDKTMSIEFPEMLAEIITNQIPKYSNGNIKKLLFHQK
How it was run: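 Competitive fluorescence-polarization assay using a red fluorescent glucocorticoid tracer with human GR in kit buffer. Compounds serially diluted 1:4 in DMSO, incubated with tracer and GR overnight at 4° C, then polarization read.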

[2] = tested on: IL-6 in A549 cells stimulated with IL-1β; assay: A549 Cell Assay to Measure Inflammation Markers (inhibition of IL-1β-induced IL-6); assay type: cell-based; conditions: intrinsic activity, Emax class ranges; for Emax: Homo sapiens, A549, A549 Cell Assay to Measure Inflammation Markers
How it was run: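 Compound pre-incubated with A549 cells 1 h at 37 °C, then stimulated with IL-1β (1 ng/mL final, 0.1% DMSO). Supernatant IL-6 quantified by MSD immunoassay after a further incubation. IC50 and Emax derived.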

Structure (SMILES) | pIC50 [1] | Emax [2] [%] | A549 Emax ([2]; A549 Cell Assay to Measure Inflammation Markers)
Cc1nn(C)c2c1C(c1ccc(Cl)cc1)SC(CCO)CN2 (stereo not shown) [D.68, 2-(4-(4-chlorophenyl)-1,3-dimethyl-4,6,7,8-tetrahydro-1H-pyrazolo[3,4-e][1,4]thiazepin-6-yl)ethanol 2,2,2-trifluoracetate] | > 7.00 | < 50 | –
Cc1ncccc1NC(=O)c1ccc([C@H]2SCCNc3c2c(-c2ccccn2)nn3C)c(Cl)c1 | > 7.00 | – | A (a compound with Emax>70%)
CC(C)Cc1nn(C)c2c1C(c1ccc(Cl)cc1Cl)SCCN2 (stereo not shown) [D.92] | > 7.00 | < 50 | –
Cc1cc(Cl)ccc1[C@H]1S[C@H](CCO)CNc2c1c(C)nn2C (single isomer, unassigned) [M.14, 2-[4-(4-chloro-2-methyl-phenyl)-1,3-dimethyl-4,6,7,8-tetrahydro-1H-pyrazolo[3,4-e][1,4]thiazepin-6-yl]-ethanol] | 6.00 to 7.00 | > 70 | –
Cc1cc(C(=O)Nc2cccnc2C)ccc1C1SCC(C)Nc2c1c(-c1ccccn1)nn2C (stereo not shown) [H.6] | > 7.00 | > 70 | –
Cc1cc(CCCO)ccc1[C@@H]1SC[C@H](C)Nc2c1c(-c1ccccn1)nn2C (single isomer, unassigned) [M.52, 3-(4-(1,7-dimethyl-3-(pyridin-2-yl)-4,6,7,8-tetrahydro-1H-pyrazolo[3,4-e][1,4]thiazepin-4-yl)-3-methylphenyl)propan-1-ol] | > 7.00 | < 50 | –
Cc1nn(C)c2c1C(c1ccc(Cl)cc1Cl)SC(C)(C)C(=O)N2C (stereo not shown) | 5.00 to 6.00 | < 50 | –
Cn1nc(C2CC2)c2c1NCC(C)(C)SC2c1ccc(Cl)cc1Cl (stereo not shown) [D.74] | > 7.00 | < 50 | –
Cc1cc(C(=O)Nc2cccnc2C)ccc1[C@H]1CC[C@@](O)(C(F)(F)F)Cc2c1c(-c1ccccn1)nn2C (racemic) | > 7.00 | > 70 | –
Cc1ccc(Br)cc1C1SCCNc2c1c(-c1ccccn1)nn2C (stereo not shown) [D.27, 4-(5-bromo-2-methyl-phenyl)-1-methyl-3-(2-pyridyl)-4,6,7,8-tetrahydropyrazolo[3,4-e][1,4]thiazepine] | > 7.00 | < 50 | –
CCc1cc(Cl)ccc1C1SCCNc2c1c(-c1ccccn1)nn2C (stereo not shown) | > 7.00 | > 50 | –
Cn1nc(-c2ccccn2)c2c1NCCSC2c1ccc(Br)cc1 (stereo not shown) [D.25, 4-(4-bromophenyl)-1-methyl-3-(2-pyridyl)-4,6,7,8-tetrahydropyrazolo[3,4-e][1,4]thiazepine] | 6.00 to 7.00 | < 50 | –
Cc1cc(C#CCCO)ccc1[C@@H]1SC[C@@H](C)Nc2c1c(-c1ccccn1)nn2C (single isomer, unassigned) [M.55, 4-(4-(1,7-dimethyl-3-(pyridin-2-yl)-4,6,7,8-tetrahydro-1H-pyrazolo[3,4-e][1,4]thiazepin-4-yl)-3-methylphenyl)but-3-yn-1-ol] | > 7.00 | < 50 | –
COc1ccc(C)c(C2SCCNc3c2c(-c2ccccn2)nn3C)c1 (stereo not shown) [D.28] | 5.00 to 6.00 | < 50 | –
Cc1cc(C#CCO)ccc1[C@@H]1SC[C@@H](C)Nc2c1c(-c1ccccn1)nn2C (single isomer, unassigned) [M.70, 3-(4-(1,7-dimethyl-3-(pyridin-2-yl)-4,6,7,8-tetrahydro-1H-pyrazolo[3,4-e][1,4]thiazepin-4-yl)-3-methylphenyl)prop-2-yn-1-ol] | > 7.00 | < 50 | –
COc1ccc(C)c(C2SC(C)(C)CNc3c2c(C2CC2)nn3C)c1 (stereo not shown) [D.106] | > 7.00 | < 50 | –
Cc1nn(C)c2c1C(c1ccc(Cl)cc1Cl)SC(C)(C)CN2C (stereo not shown) | 6.00 to 7.00 | < 50 | –
Cc1cc(OC(F)(F)F)ccc1C1SCCNc2c1c(-c1ccccn1)nn2C (stereo not shown) [D.12] | > 7.00 | < 50 | –
Cc1nn(C)c2c1C(c1ccc(Cl)cc1Cl)[S+]([O-])C(C)(C)CN2 (stereo not shown) [L.1, 4-(2,4-dichlorophenyl)-1,3,6,6-tetramethyl-7,8-dihydro-4H-pyrazolo[3,4-e][1,4]thiazepine 5-oxide] | < 5.00 | < 50 | –
Cn1nc(-c2ccccn2)c2c1NCCS(=O)(=O)C2c1ccc(Cl)cc1Cl (stereo not shown) [L.3] | 6.00 to 7.00 | < 50 | –
Cc1cc(OCC#N)ccc1[C@@H]1SC[C@@H](C)Nc2c1c(-c1ccccn1)nn2C (single isomer, unassigned) [M.23, 2-(4-(1,7-dimethyl-3-(pyridin-2-yl)-4,6,7,8-tetrahydro-1H-pyrazolo[3,4-e][1,4]thiazepin-4-yl)-3-methylphenoxy)acetonitrile] | > 7.00 | > 50 | –

Structure (SMILES) | pIC50 [1] | Emax [2] [%] | A549 Emax ([2]; A549 Cell Assay to Measure Inflammation Markers)
Cc1cc(Cl)ccc1C1SC(C)(C)CNc2c1c(C)nn2C1CCCC1 (stereo not shown) [D.70] | 6.00 to 7.00 | < 50 | –
Cc1ncccc1NC(=O)c1ccc(C2SCCNc3c2c(-c2ccccn2)nn3C)c(Cl)c1 (single isomer, unassigned) | 5.00 to 6.00 | < 50 | –
COC(=O)c1ccc(C2SCC(C)Nc3c2c(-c2ccccn2)nn3C)c(C)c1 (stereo not shown) [E.7] | > 7.00 | > 50 | –
Cn1nc(-c2ccccn2)c2c1NCC(C)(C)SC2c1ccc(Cl)cc1Cl (stereo not shown) [D.32] | > 7.00 | < 50 | –
Cc1cc(C#N)ccc1C1SCCNc2c1c(-c1ccccn1)nn2C (stereo not shown) [G.8, 3-methyl-4-(1-methyl-3-(pyridin-2-yl)-4,6,7,8-tetrahydro-1H-pyrazolo[3,4-e][1,4]thiazepin-4-yl)benzonitrile] | > 7.00 | > 60 | –
Cc1cc2c(cnn2-c2ccc(F)cc2)cc1C1SCCNc2c1c(-c1ccccn1)nn2C (stereo not shown) [D.109] | > 7.00 | > 70 | –
CCn1nc(-c2ccccn2)c2c1NCCSC2c1ccc(C(=O)Nc2cccnc2Cl)cc1C (stereo not shown) [S.10] | > 7.00 | > 70 | –
Cc1cc(Cl)ccc1C1SCC(C)Nc2c1c(-c1ccccn1)nn2C (racemic) [4-(4-chloro-2-methyl-phenyl)-1,7-dimethyl-3-(2-pyridyl)-4,6,7,8-tetrahydropyrazolo[3,4-e][1,4]thiazepine] | > 7.00 | > 70 | –
Cc1cc(Cl)ccc1[C@@H]1S[C@@H](CCO)[C@@H](C)Nc2c1c(C)nn2C (racemic) | > 7.00 | > 70 | –
Cc1cc(Br)ccc1C1SCCNc2c1c(-c1ccccn1)nn2C (stereo not shown) | > 7.00 | > 50 | –
Cc1cc(Cl)ccc1[C@@H]1S[C@H](CCO)CNc2c1c(-c1ccccn1)nn2C (single isomer, unassigned) [M.12, 2-(4-(4-chloro-2-methylphenyl)-1-methyl-3-(pyridin-2-yl)-4,6,7,8-tetrahydro-1H-pyrazolo[3,4-e][1,4]thiazepin-6-yl)ethanol] | 6.00 to 7.00 | < 50 | –
Cc1cc(Cl)ccc1C1SCCNc2c1c(-c1ccccn1)nn2C (single isomer, unassigned) | 6.00 to 7.00 | < 50 | –
Cc1cc(C(=O)Nc2cccnc2C)ccc1[C@@H]1SC[C@@H](C)Nc2c1c(-c1ccncn1)nn2C (single isomer, unassigned) [M.57, 4-(1,7-dimethyl-3-(pyrimidin-4-yl)-4,6,7,8-tetrahydro-1H-pyrazolo[3,4-e][1,4]thiazepin-4-yl)-3-methyl-N-(2-methylpyridin-3-yl)benzamide] | > 7.00 | > 70 | –
CCn1nc(-c2ccccn2)c2c1N[C@H](C)CS[C@H]2c1ccc(C#CCO)cc1C (single isomer, unassigned) [M.27, 3-(4-(1-ethyl-7-methyl-3-(pyridin-2-yl)-4,6,7,8-tetrahydro-1H-pyrazolo[3,4-e][1,4]thiazepin-4-yl)-3-methylphenyl)prop-2-yn-1-ol] | > 7.00 | > 60 | –
Cc1ncccc1NC(=O)c1ccc(C2SCCNc3c2c(-c2ccccn2)nn3C)c(Cl)c1 (stereo not shown) [F.1, 3-chloro-N-(2-methyl-3-pyridyl)-4-[1-methyl-3-(2-pyridyl)-4,6,7,8-tetrahydropyrazolo[3,4-e][1,4]thiazepin-4-yl]benzamide] | > 7.00 | > 70 | –
Cc1ccc(Cl)cc1C1SCCNc2c1c(-c1ccccn1)nn2C (stereo not shown) [D.40] | > 7.00 | < 50 | –
Cc1cc(Cl)ccc1C1SCCNc2c1c(-c1ccccn1)nn2CC(F)(F)F (stereo not shown) [D.104] | > 7.00 | > 70 | –
Cn1nc(-c2ccccn2)c2c1NCCSC2c1ccc(Cl)cc1C(F)(F)F (stereo not shown) [D.3] | > 7.00 | < 50 | –
Cc1cc(Cl)ccc1C1SCCNc2c1c(-c1cc(Cl)ccn1)nn2C (stereo not shown) [D.24] | > 7.00 | < 50 | –
Cc1cc(Br)sc1C1SCCNc2c1c(-c1ccccn1)nn2C (stereo not shown) [D.26, 4-(5-bromo-3-methyl-2-thienyl)-1-methyl-3-(2-pyridyl)-4,6,7,8-tetrahydropyrazolo[3,4-e][1,4]thiazepine] | > 7.00 | < 50 | –
